Measurements from publication PMC2248166, “Quantitative peptide binding motifs for 19 human and mouse MHC class I molecules derived using positional scanning combinatorial peptide libraries” (Immunome Research, 2008).

What was measured:
Type in all cases: binding
HLA A*3001 = HLA A*3001 (Homo sapiens, UniProt P04439, D140H/D185E/E176W/F33S/G80R/H175R/K168Q/R138E/R41S); assay: biochemical
HLA A*3201 = HLA A*3201 (Homo sapiens, UniProt P04439, A270S/D101S/D185E/E176V/E277Q/F133L/G103R/G107R/G231S/H175R/I121M/I218V/I322F/K168Q/L105A/L300P/L318F/M331R/P208A/P217A/Q94H/R106L/R138Q/S129P/T104I/T323A/T345S/V100E/V321M/V358M); assay: biochemical
HLA A*6802 = HLA A*6802 (Homo sapiens, UniProt P04439, A269V/D140Y/D185E/E176V/E277Q/E87N/F33Y/G231S/I121R/I166T/I218V/L180W/L300P/L318F/N151K/P208A/P217A/Q86R/R138H/R169H/S129P/T345S/V36M)
HLA B*0801 = HLA B*0801 (Homo sapiens, UniProt P01889, A93T/A95T/D138N/E176V/E187T/K202T/Q94N/R180D/S35A/V36M/Y33D/Y91F); assay: biochemical
HLA B*1501 = HLA B*1501 (Homo sapiens, UniProt P01889, A329T/A93T/A95T/C349S/D201E/D98Y/E187L/E204Q/E69M/E70A/K202T/N87E/Q94N/R155S/R180W/S121R/S35A/S48A/V306I/V36M/Y140S/Y91S); assay: biochemical
HLA B*1503 = HLA B*1503 (Homo sapiens, UniProt P01889, A329T/A93T/A95T/C349S/D201E/D98Y/E187L/E204Q/K202T/N87E/Q94N/R155S/R180L/S121R/S35A/V306I/V36M/Y140S/Y91S); assay: biochemical
HLA B*3501 = HLA B*3501 (Homo sapiens, UniProt P01889, A329T/A93T/A95T/C349S/D201E/D98Y/E176V/E187L/E204Q/E69T/I218V/K202T/L119I/Q94N/R155S/R180L/S121R/S35A/S48A/T118I/V127L/V306I/V36M/Y140S/Y91F)
HLA B*5101 = HLA B*5101 (Homo sapiens, UniProt P01889, A329T/A93T/A95T/C349S/D138N/D201E/D98Y/E187L/E204Q/E69T/G107R/I218V/K202T/L105A/L119W/N104I/Q94N/R106L/R155S/R180L/S101N/S121T/S35A/S48A/V306I/V36M/Y195H/Y91F)
HLA B*5301 = HLA B*5301 (Homo sapiens, UniProt P01889, A329T/A93T/A95T/C349S/D201E/D98Y/E176V/E187L/E204Q/E69T/G107R/I218V/K202T/L105A/L119I/N104I/Q94N/R106L/R155S/R180L/S101N/S121R/S35A/S48A/T118I/V127L/V306I/V36M/Y140S/Y91F)
HLA B*5401 = HLA B*5401 (Homo sapiens, UniProt P01889, A329T/C349S/D138N/D201E/E176V/E187T/E204Q/E69G/I76V/K202T/L119W/R155S/R180L/S121T/S35A/S48A/V127L/V306I/V36M/Y140L)
HLA B*5801 = HLA B*5801 (Homo sapiens, UniProt P01889, A329T/C349S/D201E/D98Y/E176V/E187L/E204Q/E69T/G107R/I218V/I90N/K202T/L105A/L119I/N104I/N87E/Q89R/Q94S/R106L/R155S/R180L/R86G/S101N/S121R/S35A/S48A/T118I/V127L/V306I/V36M/Y140S/Y91M)
HLA B*5802 = HLA B*5802 (Homo sapiens, UniProt P01889, A329T/C349S/D201E/D98Y/E176V/E187L/E204Q/E69T/G107R/I218V/I90N/K202T/L105A/N104I/N87E/Q89R/Q94S/R106L/R155S/R180L/R86G/S101N/S121W/S35A/S48A/V127L/V306I/V36M/Y140S/Y91M)
H-2 D^b = H-2 D^b (Mus musculus, UniProt P01899)
Sequence of H-2 D^b (P01887 21-119): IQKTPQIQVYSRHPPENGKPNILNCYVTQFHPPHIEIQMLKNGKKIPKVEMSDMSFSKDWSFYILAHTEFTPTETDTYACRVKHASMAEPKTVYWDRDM
Sequence of H-2 D^b (P01899 25-362): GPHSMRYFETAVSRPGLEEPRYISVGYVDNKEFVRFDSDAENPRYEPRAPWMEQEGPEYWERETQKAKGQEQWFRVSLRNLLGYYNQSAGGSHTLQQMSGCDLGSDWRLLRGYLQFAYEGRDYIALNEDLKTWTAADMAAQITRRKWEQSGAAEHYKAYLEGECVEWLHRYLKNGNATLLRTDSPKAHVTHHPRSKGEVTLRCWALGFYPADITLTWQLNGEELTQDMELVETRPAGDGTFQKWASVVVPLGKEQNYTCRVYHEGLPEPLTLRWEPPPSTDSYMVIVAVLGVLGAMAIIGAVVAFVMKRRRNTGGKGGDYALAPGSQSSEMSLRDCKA

H-2 D^d = H-2 D^d (Mus musculus, UniProt P01900)
Sequence of H-2 D^d (P01900 whole entry, looked up): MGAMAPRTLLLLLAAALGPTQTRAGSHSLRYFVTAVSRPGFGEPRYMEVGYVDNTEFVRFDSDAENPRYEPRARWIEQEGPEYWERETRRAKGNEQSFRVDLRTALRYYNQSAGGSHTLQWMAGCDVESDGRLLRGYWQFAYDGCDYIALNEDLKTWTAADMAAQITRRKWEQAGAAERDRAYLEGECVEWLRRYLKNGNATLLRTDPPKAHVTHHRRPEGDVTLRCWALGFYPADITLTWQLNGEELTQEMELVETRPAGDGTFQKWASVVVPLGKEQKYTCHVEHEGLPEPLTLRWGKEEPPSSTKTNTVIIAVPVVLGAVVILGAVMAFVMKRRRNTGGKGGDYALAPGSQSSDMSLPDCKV

H-2 K^d = H-2 K^d (Mus musculus, UniProt P01902)
Sequence of H-2 K^d (P01887 21-119): as the sequence (P01887 21-119) above
Sequence of H-2 K^d (P01902 22-368): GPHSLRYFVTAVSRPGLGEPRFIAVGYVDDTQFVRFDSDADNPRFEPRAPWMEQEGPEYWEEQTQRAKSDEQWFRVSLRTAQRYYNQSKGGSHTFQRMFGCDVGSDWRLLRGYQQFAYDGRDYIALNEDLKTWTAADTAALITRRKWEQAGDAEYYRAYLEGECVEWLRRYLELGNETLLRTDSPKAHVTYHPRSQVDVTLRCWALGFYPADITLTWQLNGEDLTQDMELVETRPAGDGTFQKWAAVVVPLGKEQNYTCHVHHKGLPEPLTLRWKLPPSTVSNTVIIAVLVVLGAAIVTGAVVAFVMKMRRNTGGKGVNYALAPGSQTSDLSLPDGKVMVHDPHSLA

H-2 K^k = H-2 K^k (Mus musculus, UniProt P04223)
Sequence of H-2 K^k (P01887 21-119): as the sequence (P01887 21-119) above
Sequence of H-2 K^k (P04223 22-369): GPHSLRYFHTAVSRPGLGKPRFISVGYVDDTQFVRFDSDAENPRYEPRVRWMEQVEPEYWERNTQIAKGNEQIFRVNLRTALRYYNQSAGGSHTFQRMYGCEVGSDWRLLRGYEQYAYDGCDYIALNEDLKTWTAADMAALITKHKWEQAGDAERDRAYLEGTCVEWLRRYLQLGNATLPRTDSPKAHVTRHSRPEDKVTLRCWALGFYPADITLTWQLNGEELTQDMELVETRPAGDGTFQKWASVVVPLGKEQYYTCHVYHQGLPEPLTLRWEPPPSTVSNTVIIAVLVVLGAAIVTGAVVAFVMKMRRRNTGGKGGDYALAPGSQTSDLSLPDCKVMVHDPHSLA

Sequence	Normalized average relative binding affinity(ARB) (HLA A*3001)	Normalized average relative binding affinity(ARB) (HLA A*3201)	Normalized average relative binding affinity(ARB) (HLA A*6802)	Normalized average relative binding affinity(ARB) (HLA B*0801)	Normalized average relative binding affinity(ARB) (HLA B*1501)	Normalized average relative binding affinity(ARB) (HLA B*1503)	Normalized average relative binding affinity(ARB) (HLA B*3501)	Normalized average relative binding affinity(ARB) (HLA B*5101)	Normalized average relative binding affinity(ARB) (HLA B*5301)	Normalized average relative binding affinity(ARB) (HLA B*5401)	Normalized average relative binding affinity(ARB) (HLA B*5801)	Normalized average relative binding affinity(ARB) (HLA B*5802)	Normalized average relative binding affinity(ARB) (H-2 D^b)	Normalized average relative binding affinity(ARB) (H-2 D^d)	Normalized average relative binding affinity(ARB) (H-2 K^d)	Normalized average relative binding affinity(ARB) (H-2 K^k)
XXXHXXXXX [3064.0067]	0.45	0.32	0.30	0.26	0.19	0.29	0.16	0.18	0.089	0.21	0.40	0.32	0.29	0.53	0.22	0.13
XXXXXXXTX [3064.0157]	0.31	0.86	0.37	0.24	0.40	0.23	0.26	0.57	0.22	0.20	0.29	0.66	0.24	0.58	0.52	0.28
XXXGXXXXX [3064.0066]	0.50	0.33	0.26	0.063	0.23	0.19	0.17	0.47	0.18	0.062	0.21	0.15	0.088	0.17	0.14	0.19
XXXXXWXXX [3064.0119]	0.14	0.26	0.44	0.046	0.36	0.37	0.99	0.10	0.36	0.18	0.21	0.29	1.0	0.77	0.29	0.49
XXXXXXXCX [3064.0142]	0.11	0.11	0.19	0.22	0.18	0.11	0.087	0.38	0.078	0.74	0.18	0.21	0.12	0.78	0.28	0.37
XXXXXVXXX [3064.0118]	0.22	1.0	0.60	0.077	0.37	0.78	0.34	0.20	0.65	0.17	0.72	0.26	0.51	0.63	0.32	0.59
XXXMXXXXX [3064.0071]	0.38	0.58	0.55	1.0	0.56	1.0	0.27	0.46	0.46	0.13	0.54	0.44	0.65	0.49	0.22	0.42
XXXXXXXHX [3064.0147]	0.44	0.49	0.046	0.15	1.0	0.84	0.15	0.33	0.74	0.043	0.18	0.26	0.073	0.11	0.096	0.0052
